Assay results published in ChEMBL document CHEMBL1127179, “Synthesis and 5-HT3 receptor agonist activity of arylureas derived from histamine” (Bioorg Med Chem Lett, 1993).

How the values were obtained:
[1] = molecular target: Serotonin 3 (5-HT3) receptor; assay: Binding affinity for the 5-hydroxytryptamine 3 receptor was evaluated in vitro by examining its ability to displace [3H]-BRL 43694.; assay type: protein-complex assay
[2] = molecular target: Serotonin 3 (5-HT3) receptor (Homo sapiens) (UniProt P46098+A5X5Y0+O95264+Q70Z44+Q8WXA8); assay: Tested for 5-hydroxytryptamine 3 receptor antagonist activity by inhibiting the 5-HT evoked Bezold-Jarisch reflex; assay type: functional

SMILES	Log Ki [1]	-Log ED50 [2]
Cn1nc(C(=O)NCCc2c[nH]cn2)c2ccccc21	-7.84	6.9
COc1ccccc1NC(=O)NCCc1c[nH]cn1	-7.55	7
COc1ccc(Cl)cc1NC(=O)NCCc1c[nH]cn1	-8.86	6.8
CCOc1ccccc1NC(=O)NCCc1c[nH]cn1	-7.35	7.2
COc1ccc(F)cc1NC(=O)NCCc1c[nH]cn1	-7.69	7.4
COc1cc(F)ccc1NC(=O)NCCc1c[nH]cn1	-7.39	7
NCCc1c[nH]c2ccc(O)cc12		7.4
